One data set has as its system MDR1. Description: Apparent permeability from apical to basolateral side of MDCK cells expressing MDR1. Conditions: dog. In kind it is ADME, cell-based, Canis lupus familiaris.
A short description of data set [1]: Dissociation constant, pKa of the compound. In kind it is physicochemical.
Data set [2] can be described thus: Plasma concentration in APP50/16 tg mouse at 60 umol/kg, po after 4 hrs. Conditions: APP50/16 transgenic. In kind it is ADME, organism-based.
The nature of data set [3]: Drug level in APP50/16 tg mouse brain at 60 umol/kg, po after 4 hrs. Type of data set: ADME, organism-based. The following applies: APP50/16 transgenic, read-out: Drug uptake.

Consider `COCc1cc2cc(c1)C(=O)N[C@H]([C@H](O)CNCc1cccc(C(C)C)c1)Cc1cccc(c1)OCCCCN2`, for which the Papp A→B with MDR1 amounted to 0.16 ×10⁻⁶ cm/s.

Regarding `CCCS(=O)(=O)N(C)c1cc2cc(c1)C(=O)N[C@H]([C@H](O)CNCc1cccc(C(C)C)c1)Cc1cccc(c1)OCCCCN2`, the apparent permeability from apical to basolateral (Papp A→B) in the data set on MDR1 amounted to 0.95 ×10⁻⁶ cm/s.

With `COCc1cc2cc(c1)C(=O)N[C@H]([C@H](O)CNC(COC)c1cccc(C(C)(C)C)c1)Cc1cccc(c1)OCCCCN2` (stereo not given in full), the Papp A→B in the data set on MDR1 came out at 1.3 ×10⁻⁶ cm/s.

Take `CC(C)c1cccc(C2(NC[C@@H](O)[C@@H]3Cc4cccc(c4)OCCCCOc4cc(cc(N5CCCC5=O)c4)C(=O)N3)CC2)c1`: in the data set with MDR1, the Papp A→B amounted to 0.4 ×10⁻⁶ cm/s.

As to `COCc1cc2cc(c1)C(=O)N[C@H]([C@H](O)CNC1(c3cccc(C(C)(C)C)c3)CCC1)Cc1cccc(c1)OCCCCN2`, in the data set on MDR1, the Papp A→B was 1.2 ×10⁻⁶ cm/s.

Consider `COCc1cc2cc(c1)C(=O)N[C@H]([C@H](O)CNC(CF)c1cccc(C(C)(C)C)c1)Cc1cccc(c1)OCCCCN2` (stereo not given in full), for which the Papp A→B in the data set on MDR1 amounted to 3.8 ×10⁻⁶ cm/s. In data set [1], the pKa was determined as 7.2.

With `CC(C)c1cccc(CNC[C@@H](O)[C@@H]2Cc3cccc(c3)OCCCCNc3cccc(c3)C(=O)N2)c1`, in the data set on MDR1, the Papp A→B came to 2 ×10⁻⁶ cm/s.

Turning to `Cc1cc2cc(n1)NCCCCOc1cccc(c1)C[C@@H]([C@H](O)CNCc1cccc(C(C)C)c1)NC2=O`, the Papp A→B in the data set on MDR1 is 0.17 ×10⁻⁶ cm/s.

Regarding `COCc1cc2cc(c1)C(=O)N[C@H]([C@H](O)CNC(c1cccc(C(C)(C)C)c1)C(F)(F)F)Cc1cccc(c1)OCCCCN2` (stereo not given in full), the apparent permeability from apical to basolateral (Papp A→B) in the data set with MDR1 worked out at 5.6 ×10⁻⁶ cm/s. The pKa in data set [1] amounted to 3.8.

For the compound `COCc1cc2cc(c1)C(=O)N[C@H]([C@H](O)CNC1(c3cccc(C(C)(C)C)c3)CCCC1)Cc1cccc(c1)OCCCCN2`, in the data set with MDR1, the Papp A→B turned out to be 1.4 ×10⁻⁶ cm/s.

Take `CC(C)c1cccc(CNC[C@@H](O)[C@@H]2Cc3cccc(c3)OCCCCNc3cc(cc(N4C=COC4)c3)C(=O)N2)c1`: the Papp A→B in the data set with MDR1 amounted to 0.11 ×10⁻⁶ cm/s.

In the case of `COCc1cc2cc(n1)OCCCCOc1cccc(c1)C[C@@H]([C@H](O)CNC1(c3cccc(C(C)C)c3)CC1)NC2=O`, the concentration at 4 h in data set [2] is 2200 nM; in data set [3], 540 nM. Further, in the data set with MDR1, the Papp A→B worked out at 4.9 ×10⁻⁶ cm/s.

`COCc1cc2cc(c1)C(=O)N[C@H]([C@H](O)CNC1(c3cccc(C(C)C)c3)CC1)Cc1cccc(c1)OCCCCN2`: the results for the concentration at 4 h in data set [2] and in data set [3] were 1200 nM and 250 nM, respectively. For the same compound, the apparent permeability from apical to basolateral (Papp A→B) in the data set with MDR1 is 3.1 ×10⁻⁶ cm/s. This compound also showed a pKa in data set [1] of 7.3.

In the case of `Cc1cc2cc(n1)OCCCCOc1cccc(c1)C[C@@H]([C@H](O)CNCc1cccc(C(C)C)c1)NC2=O`, the concentration at 4 h is 30 nM in data set [2] and 40 nM in data set [3]. The apical-to-basolateral permeability (Papp A→B) in the data set with MDR1 was 1.3 ×10⁻⁶ cm/s.

Consider `Cc1cc2cc(n1)OCCCCOc1cccc(c1)C[C@@H]([C@H](O)CNC(C)c1cccc(C(C)C)c1)NC2=O` (stereo not given in full), for which, in the data set with MDR1, the apical-to-basolateral permeability (Papp A→B) is 1.3 ×10⁻⁶ cm/s. In data set [1], this compound gave a pKa of 8.5.

For the compound `COCc1cc2cc(c1)C(=O)N[C@H]([C@H](O)CNC(C)(C)c1cccc(C(C)C)c1)Cc1cccc(c1)OCCCCN2`, the apparent permeability from apical to basolateral (Papp A→B) in the data set with MDR1 came to 1.8 ×10⁻⁶ cm/s.

As for `Cc1cc2cc(n1)OCCCCOc1cccc(c1)C[C@@H]([C@H](O)CNC1(c3cccc(C(C)C)c3)CC1)NC2=O`, the results for the concentration at 4 h in data set [2] and in data set [3] were 3000 nM and 320 nM, respectively. Further, the Papp A→B in the data set on MDR1 is 4 ×10⁻⁶ cm/s.

In the case of `CCCS(=O)(=O)N(C)c1cc2cc(c1)C(=O)N[C@H]([C@H](O)CNC1(c3cccc(C(C)C)c3)CC1)Cc1cccc(c1)OCCCCN2`, the apical-to-basolateral permeability (Papp A→B) in the data set on MDR1 was determined as 0.28 ×10⁻⁶ cm/s.

Usually Papp A→B stands for the apparent permeability from the apical to the basolateral side of a cell layer. A word on the pKa: it is the pH at which an ionisable group is half protonated. Read a low pKa as a stronger acid or weaker base.

The record behind these values is ChEMBL document CHEMBL1153192, “Macrocyclic BACE-1 inhibitors acutely reduce Abeta in brain after po application” (Bioorg Med Chem Lett, 2010).
